Results from patent US11090319B2, “Therapeutic uses of pharmaceutical compositions comprising cyclic boronic acid ester derivatives” (Melinta Subsidiary Corp., priority 2010, dated 2021).
Like-named read-outs stand apart in the source and are kept apart here.

Assays:
[1] = target: various β-lactamases (bacterial lysates) (Escherichia coli, UniProt A0A5R8T042); test: biochemical; assay type: biochemical; settings: read-out: AZT IC50 KP1009 CTX-M-15
[2] = target: various β-lactamases (bacterial lysates) (Pseudomonas aeruginosa, UniProt P14489); test: biochemical; assay type: biochemical; settings: AZT IC50 KP1007 OXA-10
[3] = target: various β-lactamases (bacterial lysates) (Klebsiella pneumoniae, UniProt Q9F663); test: biochemical; assay type: biochemical
[4] = target: various β-lactamases (bacterial lysates) (Salmonella typhimurium, UniProt P0A1V8); test: biochemical; assay type: biochemical; settings: AZT IC50 KPX1001 OXA-2
[5] = target: various β-lactamases (bacterial lysates) (Klebsiella pneumoniae, UniProt Q9F663, H272Y); test: biochemical; assay type: biochemical
[6] = target: various β-lactamases (bacterial lysates) (Escherichia coli, UniProt A0A649V088); test: biochemical; assay type: biochemical; settings: read-out: AZT IC50 KP1005 CTX-M-14
[7] = system: strains expressing class A ESBLs; assay type: cell-based
Experimental: Selected β-lactamase inhibitors were also tested for their ability to potentiate the monobactam tigemonam.

[8] = target: various β-lactamases (bacterial lysates) (Escherichia coli, UniProt Q53TY8); test: Inhibition of nitrocefin cleavage by bacterial lysates, Table 11; assay type: biochemical; settings: lysate EC1010 pAmpC (CMY-6), read-out: NCF IC50 EC1010 pAmpC (CMY-6)
[9] = lysate KP1004 KPC-2, aztreonam cleavage, read-out: AZT IC50 KP1004 KPC-2 (converted)
[10] = lysate KP1008 KPC-2, aztreonam cleavage, read-out: AZT IC50 KP1008 KPC-2

Sequence of various β-lactamases (bacterial lysates) (Pseudomonas aeruginosa, UniProt P14489) (P14489 20-266): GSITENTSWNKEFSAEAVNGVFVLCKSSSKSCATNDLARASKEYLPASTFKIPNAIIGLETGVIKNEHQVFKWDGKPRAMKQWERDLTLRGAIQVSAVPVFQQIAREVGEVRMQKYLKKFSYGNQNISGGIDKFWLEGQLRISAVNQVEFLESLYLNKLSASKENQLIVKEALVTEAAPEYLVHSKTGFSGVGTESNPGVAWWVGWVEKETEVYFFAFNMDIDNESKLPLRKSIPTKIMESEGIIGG
Sequence of various β-lactamases (bacterial lysates) (Klebsiella pneumoniae, UniProt Q9F663) (Q9F663 whole entry, looked up): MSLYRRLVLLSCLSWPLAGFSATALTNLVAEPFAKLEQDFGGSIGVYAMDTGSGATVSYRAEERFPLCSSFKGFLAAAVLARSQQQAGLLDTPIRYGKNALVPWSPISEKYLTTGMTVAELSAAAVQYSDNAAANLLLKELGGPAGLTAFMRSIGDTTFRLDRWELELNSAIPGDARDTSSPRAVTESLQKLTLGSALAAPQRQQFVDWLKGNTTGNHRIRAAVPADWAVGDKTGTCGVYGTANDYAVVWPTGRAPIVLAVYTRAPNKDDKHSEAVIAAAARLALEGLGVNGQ
Sequence of various β-lactamases (bacterial lysates) (Salmonella typhimurium, UniProt P0A1V8) (P0A1V8 22-275): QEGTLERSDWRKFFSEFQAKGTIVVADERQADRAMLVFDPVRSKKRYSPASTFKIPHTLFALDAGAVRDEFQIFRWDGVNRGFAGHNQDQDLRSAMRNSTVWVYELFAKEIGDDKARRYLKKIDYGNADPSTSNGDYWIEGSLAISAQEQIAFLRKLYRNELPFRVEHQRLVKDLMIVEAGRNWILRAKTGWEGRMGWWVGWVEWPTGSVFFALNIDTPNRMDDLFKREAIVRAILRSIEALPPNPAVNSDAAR
Sequence of various β-lactamases (bacterial lysates) (Escherichia coli, UniProt A0A5R8T042) (A0A5R8T042 29-291): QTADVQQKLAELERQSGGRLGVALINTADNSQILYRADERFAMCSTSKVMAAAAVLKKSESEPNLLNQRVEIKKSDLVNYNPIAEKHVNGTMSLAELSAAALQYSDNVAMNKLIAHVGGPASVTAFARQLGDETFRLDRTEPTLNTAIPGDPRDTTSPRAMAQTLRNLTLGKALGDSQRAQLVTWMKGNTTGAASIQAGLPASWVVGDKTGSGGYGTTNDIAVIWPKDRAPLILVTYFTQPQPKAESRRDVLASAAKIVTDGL
Sequence of various β-lactamases (bacterial lysates) (Escherichia coli, UniProt A0A649V088) (A0A649V088 29-291): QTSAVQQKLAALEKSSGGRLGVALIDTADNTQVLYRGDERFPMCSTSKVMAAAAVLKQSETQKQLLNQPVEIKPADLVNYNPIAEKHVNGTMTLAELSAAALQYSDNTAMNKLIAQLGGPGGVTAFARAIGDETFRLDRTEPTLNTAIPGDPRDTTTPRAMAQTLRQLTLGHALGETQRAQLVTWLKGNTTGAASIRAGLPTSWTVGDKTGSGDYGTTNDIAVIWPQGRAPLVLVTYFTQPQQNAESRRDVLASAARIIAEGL
Sequence of various β-lactamases (bacterial lysates) (Klebsiella pneumoniae, UniProt Q9F663, H272Y) (Q9F663 whole entry H272Y, looked up): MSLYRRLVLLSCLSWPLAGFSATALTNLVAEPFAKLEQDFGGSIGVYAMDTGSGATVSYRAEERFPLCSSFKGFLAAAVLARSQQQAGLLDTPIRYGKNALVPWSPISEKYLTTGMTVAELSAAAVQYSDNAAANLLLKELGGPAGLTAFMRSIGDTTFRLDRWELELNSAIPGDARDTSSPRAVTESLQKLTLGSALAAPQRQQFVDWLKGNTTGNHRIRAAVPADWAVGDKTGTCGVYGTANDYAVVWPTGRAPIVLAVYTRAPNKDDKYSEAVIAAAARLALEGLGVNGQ
Sequence of various β-lactamases (bacterial lysates) (Escherichia coli, UniProt Q53TY8) (Q53TY8 entry or part of it): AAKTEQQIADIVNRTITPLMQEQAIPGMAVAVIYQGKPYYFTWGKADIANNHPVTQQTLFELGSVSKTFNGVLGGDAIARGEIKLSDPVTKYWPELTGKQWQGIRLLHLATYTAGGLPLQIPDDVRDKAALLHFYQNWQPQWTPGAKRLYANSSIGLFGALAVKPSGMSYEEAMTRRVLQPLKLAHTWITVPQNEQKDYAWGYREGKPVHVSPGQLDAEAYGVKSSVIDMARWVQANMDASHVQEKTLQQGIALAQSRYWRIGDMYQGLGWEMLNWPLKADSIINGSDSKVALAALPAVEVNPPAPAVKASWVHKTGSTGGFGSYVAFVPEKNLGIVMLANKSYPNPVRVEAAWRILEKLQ

SMILES	IC50 [1]	IC50 [2]	IC50 ([3]; AZT IC50 KP1004 KPC-2)	IC50 ([3]; AZT IC50 KP1008 KPC-2)	IC50 [4]	IC50 [5]	IC50 [6]	MPC4 CTX-M-14 KP1005 [7]	MPC4 CTX-M-15 KP1009 [7]	MPC4 SHV-5 ec308 [7]	MPC4 SHV-12 KP1010 [7]	MPC4 SHV-18 KP1012 [7]	MPC4 TEM-10 EC1009 [7]	MPC4 TEM-10 ec302 [7]	MPC4 TEM-26 ec304 [7]	IC50 [8]	IC50 [3, 9]	IC50 [3, 10]
O=C(O)[C@H]1/C(=C/CO)O[C@@H]2CC(=O)N21 [Clavulanic Acid, reference compound]	1.24 µM	7.43 µM	3.72 µM	11.1 µM	0.402 µM	7.43 µM	0.275 µM	2.5 µg/mL	1.25 µg/mL	<=0.6 μg/mL	<=0.6 μg/mL	<=0.6 μg/mL	<=0.6 μg/mL	2.5 µg/mL	<=0.6 μg/mL			
CC(C)(O/N=C(\C(=O)N[C@H]1CC[C@@H](CC(=O)O)OB1O)c1csc(N)n1)C(=O)O [Compound 36, 2-((Z)-1-(2-aminothiazol-4-yl)-2-((3R,6S)-6-(carboxymethyl)-2-hydroxy-1,2-oxaborinan-3-ylamino)-2-oxoethylideneaminooxy)-2-methylpropanoic acid]	< 1.17 µM	> 4.67 µM			> 4.67 µM	< 1.17 µM	< 1.17 µM									> 4.67 µM	1.17 to 4.67 µM	1.17 to 4.67 µM
O=C(O)C[C@@H]1CC[C@H](NC(=O)c2ccccc2)B(O)O1 [Compound 37, 2-((3R,6S)-3-benzamido-2-hydroxy-1,2-oxaborinan-6-yl)acetic acid]	< 1.8 µM	1.8 to 7.22 µM			1.8 to 7.22 µM	< 1.8 µM	< 1.8 µM	Z (key: X: MPC@4 of less than 2 μg/mL; Y: MPC@4 of 2 μg/mL to 10 μg/mL; Z: MPC@4 of greater than 10 μg/mL)	Z (key: X: MPC@4 of less than 2 μg/mL; Y: MPC@4 of 2 μg/mL to 10 μg/mL; Z: MPC@4 of greater than 10 μg/mL)	Z (key: X: MPC@4 of less than 2 μg/mL; Y: MPC@4 of 2 μg/mL to 10 μg/mL; Z: MPC@4 of greater than 10 μg/mL)	Z (key: X: MPC@4 of less than 2 μg/mL; Y: MPC@4 of 2 μg/mL to 10 μg/mL; Z: MPC@4 of greater than 10 μg/mL)	Z (key: X: MPC@4 of less than 2 μg/mL; Y: MPC@4 of 2 μg/mL to 10 μg/mL; Z: MPC@4 of greater than 10 μg/mL)	Z (key: X: MPC@4 of less than 2 μg/mL; Y: MPC@4 of 2 μg/mL to 10 μg/mL; Z: MPC@4 of greater than 10 μg/mL)	Z (key: X: MPC@4 of less than 2 μg/mL; Y: MPC@4 of 2 μg/mL to 10 μg/mL; Z: MPC@4 of greater than 10 μg/mL)	Z (key: X: MPC@4 of less than 2 μg/mL; Y: MPC@4 of 2 μg/mL to 10 μg/mL; Z: MPC@4 of greater than 10 μg/mL)		< 1.8 µM	< 1.8 µM
NCCSCC(=O)N[C@H]1CC[C@@H](CC(=O)O)OB1O [Compound 48, 2-((3R,6S)-3-(2-(2-aminoethylthio)acetamido)-2-hydroxy-1,2-oxaborinan-6-yl)acetic acid]	> 6.89 µM	> 6.89 µM			1.72 to 6.89 µM	< 1.72 µM	1.72 to 6.89 µM	Z (key: X: MPC@4 of less than 2 μg/mL; Y: MPC@4 of 2 μg/mL to 10 μg/mL; Z: MPC@4 of greater than 10 μg/mL)	Z (key: X: MPC@4 of less than 2 μg/mL; Y: MPC@4 of 2 μg/mL to 10 μg/mL; Z: MPC@4 of greater than 10 μg/mL)	Z (key: X: MPC@4 of less than 2 μg/mL; Y: MPC@4 of 2 μg/mL to 10 μg/mL; Z: MPC@4 of greater than 10 μg/mL)	Z (key: X: MPC@4 of less than 2 μg/mL; Y: MPC@4 of 2 μg/mL to 10 μg/mL; Z: MPC@4 of greater than 10 μg/mL)	Z (key: X: MPC@4 of less than 2 μg/mL; Y: MPC@4 of 2 μg/mL to 10 μg/mL; Z: MPC@4 of greater than 10 μg/mL)	Z (key: X: MPC@4 of less than 2 μg/mL; Y: MPC@4 of 2 μg/mL to 10 μg/mL; Z: MPC@4 of greater than 10 μg/mL)	Z (key: X: MPC@4 of less than 2 μg/mL; Y: MPC@4 of 2 μg/mL to 10 μg/mL; Z: MPC@4 of greater than 10 μg/mL)	Z (key: X: MPC@4 of less than 2 μg/mL; Y: MPC@4 of 2 μg/mL to 10 μg/mL; Z: MPC@4 of greater than 10 μg/mL)		< 1.72 µM	1.72 to 6.89 µM
C[C@]1(Cn2ccnn2)[C@H](C(=O)N[C@H]2CC[C@@H](CC(=O)O)OB2O)N2C(=O)C[C@H]2S1(=O)=O [Compound 59, 2-[(3R,6S)-2-hydroxy-3-[(2S,3 S,5R)-3-methyl-4,4,7-trioxo-3-(1H-1,2,3-triazol-1-ylmethyl)-4λ^6-thia-1-azabicyclo[3.2.0]heptane-2-amido]-1,2-oxaborinan-6-yl]acetic acid]	> 4.39 µM	> 4.39 µM			1.1 to 4.39 µM	1.1 to 4.39 µM	> 4.39 µM										1.1 to 4.39 µM	< 1.1 µM
O=C(O)C[C@@H]1CC[C@H](NC(=O)CCc2nnc(-c3ccccc3)o2)B(O)O1 [Compound 60, 2-((3R,6S)-2-hydroxy-3-(3-(5-phenyl-1,3,4-oxadiazol-2-yl)propanamido)-1,2-oxaborinan-6-yl)acetic acid]	1.34 to 5.36 µM	> 5.36 µM			1.34 to 5.36 µM	< 1.34 µM	1.34 to 5.36 µM										< 1.34 µM	< 1.34 µM
Nc1cc(CC(=O)N[C@H]2CC[C@@H](CC(=O)O)OB2O)ccn1 [Compound 61, 2-((3R,6S)-3-(2-(2-aminopyridin-4-yl)acetamido)-2-hydroxy-1,2-oxaborinan-6-yl)acetic acid]	> 6.51 µM	> 6.51 µM			1.63 to 6.51 µM	< 1.63 µM	1.63 to 6.51 µM										< 1.63 µM	< 1.63 µM
O=C(O)CC1CCC[C@H](NC(=O)Cc2cccs2)B(O)O1 (stereo partly drawn) [Compound 63, 2-((3R)-2-hydroxy-3-(2-(thiophen-2-yl)acetamido)-1,2-oxaborepan-7-yl)acetic acid]	1.61 to 6.43 µM	> 6.43 µM			1.61 to 6.43 µM	1.61 to 6.43 µM	1.61 to 6.43 µM	Z (key: X: MPC@4 of less than 2 μg/mL; Y: MPC@4 of 2 μg/mL to 10 μg/mL; Z: MPC@4 of greater than 10 μg/mL)	Y (key: X: MPC@4 of less than 2 μg/mL; Y: MPC@4 of 2 μg/mL to 10 μg/mL; Z: MPC@4 of greater than 10 μg/mL)	Z (key: X: MPC@4 of less than 2 μg/mL; Y: MPC@4 of 2 μg/mL to 10 μg/mL; Z: MPC@4 of greater than 10 μg/mL)	Y (key: X: MPC@4 of less than 2 μg/mL; Y: MPC@4 of 2 μg/mL to 10 μg/mL; Z: MPC@4 of greater than 10 μg/mL)	Y (key: X: MPC@4 of less than 2 μg/mL; Y: MPC@4 of 2 μg/mL to 10 μg/mL; Z: MPC@4 of greater than 10 μg/mL)	Z (key: X: MPC@4 of less than 2 μg/mL; Y: MPC@4 of 2 μg/mL to 10 μg/mL; Z: MPC@4 of greater than 10 μg/mL)	Z (key: X: MPC@4 of less than 2 μg/mL; Y: MPC@4 of 2 μg/mL to 10 μg/mL; Z: MPC@4 of greater than 10 μg/mL)	Z (key: X: MPC@4 of less than 2 μg/mL; Y: MPC@4 of 2 μg/mL to 10 μg/mL; Z: MPC@4 of greater than 10 μg/mL)		1.61 to 6.43 µM	1.61 to 6.43 µM
CCOC(=O)C[C@@H]1CC[C@H](NC(=O)Cc2cccs2)B(O)O1 [Compound 65, ethyl 2-((3R,6S)-2-hydroxy-3-(2-(thiophen-2-yl)acetamido)-1,2-oxaborinan-6-yl)acetate]	> 6.15 µM	> 6.15 µM			1.54 to 6.15 µM	> 6.15 µM	1.54 to 6.15 µM										1.54 to 6.15 µM	1.54 to 6.15 µM
O=C(O)C[C@@H]1CC[C@H](NC(=O)Cc2cc(F)cc(F)c2)B(O)O1 [Compound 66, 2-((3R,6S)-3-(2-(3,5-difluorophenyl)acetamido)-2-hydroxy-1,2-oxaborinan-6-yl)acetic acid]	> 6.11 µM	> 6.11 µM			< 1.53 µM	< 1.53 µM	1.53 to 6.11 µM										< 1.53 µM	< 1.53 µM
